Values joined by “and” are separate entries in the source; they are usually repeats but may differ in a detail not shown here. Identical values can stand only once.
Experiments:
[1] = system: luciferase expression; assay: In-vivo delivery of mRNA encoding luciferase using LNPs (IVIS of organs); parameters: species or system Mice; details: for bio-distribution of LNPs (luciferase expression by IVIS): mLUC-LNPs IV 0.5 mg/kg, 7 hr post administration, lung, liver, spleen, kidney; for luciferase activity of LNPs with DOPE as co-lipid compared to DSPC containing LNPs: mRNA-LNPs in mice; for bio-distribution on increasing ionizable lipid mole ratio (40% vs 30%): mRNA-LNPs IV
[2] = system: CD11c positive splenic dendritic cells; assay: mCRE-LNPs in Ai9 mice, FACS for tdTomato expression; format: in vivo; details: mCRE-LNPs IV 0.5 mg/kg, 72 hr post administration
Experimental: (§1) Ai9 mice that express robust tdTomato fluorescence following cre-mediated recombination were injected intravenously with the various mCRE-LNPs at 0.5 mg/kg dose. Mice were sacrificed 72 hr post administration and peritoneal macrophages and spleenocytes were isolated and analyzed by FACS for tdTomato expression (FIGS. 13 and 14).

[3] = system: peritoneal macrophages; assay: as above; format: in vivo; details: mCRE-LNPs IV 0.5 mg/kg, 72 hr post administration
Experimental: as §1

[4] = Physico-chemical characterization of LNPs made of different ionizable lipids (DLS, zeta potential); format: physicochemical
Experimental: Various LNPs comprising different ionizable lipid were prepared by using microfluidic micro mixture (Precision NanoSystems, Vancouver, BC) device. Briefly, one volume of lipid mixtures (ionizable lipid, DSPC, Cholesterol and DMG-PEG at 30:18:49.5:2.5 mole ratios) in ethanol and three volumes of mRNA containing acetate buffer solutions were mixed through the micromixer at a combined flow rate of 12 mL/min. The resultant mixture was dialyzed against PBS (pH 7.4) for 16 hours to remove ethanol.
The prepared LNPs comprising different ionizable lipids were characterized using transmission electron microscopy (TEM) analysis (FIGS. 10A-10G), dynamic light scattering (DLS) and zeta potential measurements. Table 1 represents the measured hydrodynamic diameter (Z-ave; d.nm), polydispersity index (PDI) and zeta potential (mV) of various LNPs. The resultant LNPs were spherical and uniformly distributed with a hydrodynamic diameter size of ˜50-260 nm, depending on the ionizable lipid used. Additionally, LNP surface potentials were negative.
In addition, DSL1-3 LNPs comprising different amounts of PEG (1.5 mol % or 2.5 mol %) were compared for bio-distribution. Mice treated and sacrificed; organs prepared for luciferase expression analysis as detailed above. […] Next, as shown in FIGS. 11M-11P, mRNA-LNPs composed of DSL1-4, 1-5, 2-2 or 2-50 lipids were compared to DSPC or DOPE as co-lipids. […] Tables 2-5 detail the physio-chemical properties of LNPs made of either DOPE or DSPC (the measured hydrodynamic diameter (Z-ave; d.nm), polydispersity index (PDI)).

[5] = system: mice; assay: In vivo safety analysis of mRNA-LNPs (serum liver enzymes); details: mRNA-LNPs IV; serum after 2 hr and 24 hr; compared to untreated mice
Experimental: After 2 hr and 24 hr blood was collected and serum samples were analyzed for levels of the liver enzymes alkaline phosphatase (Alk Phos), serum glutamic-oxaloacetic transaminase (SGOT) or serum glutamic pyruvic transaminase (SGPT).
Safety is an important limitation for clinical development of LNPs. Therefore, mRNA-LNPs system made of DSL2-50 and DSL1-3 lipids were tested and evaluated for the toxicity in mice.

[6] = system: SARS-CoV-2; details: IM day 0 and booster day 21, serum 3 weeks after booster; BALB/c and C57BL6 mice
Experimental: To evaluate the efficiency of our LNP system for vaccine delivery, mRNA against human Fc conjugated RBD (RBD-hFc mRNA) was chosen. LNPs encapsulated RBD-mRNA administered IM in to BALB/c mice (FIG. 19) and C57BL6 mice (FIG. 20) on day ‘0’ and a booster dose on day ‘21’. Serum was collected on day ‘21’ (pre boost) and 3 weeks after the booster dose (post boost) and analyzed for humoral response. […] The cellular response (SARS-CoV-2 specific T-cell response) was measured by ELISPOT assay for IFN-γ response.

[7] = system: luciferase expression; assay: Luciferase expression in mouse organs after storage of mRNA-LNPs (IVIS); format: in vivo, mice; details: mLuc LNPs stored 210 days at 2-8° C.
[8] = Stability of mRNA-LNPs stored at 2-8° C. (size, PDI); format: physicochemical
[9] = system: Luciferase and mCherry expression; assay: Delivery of two types of mRNA encapsulated in a single LNP (IVIS of livers); format: in vivo; details: mice livers; compared to SM102-LNPs
[10] = system: tdTomato expression; assay: Biodistribution of DSL1-2 LNPs compared to Dlin-MC3-DMA LNPs (IVIS of spleen and liver); format: in vivo, Ai9 mice; details: mCRE-LNPs IV 0.5 mg/kg, 72 hr post administration
Experimental: Ai9 mice that express robust tdTomato fluorescence following cre-mediated recombination were injected intravenously with either Dlin-MC3-DMA or DSL1-2 mCRE-LNPs at 0.5 mg/kg dose. Mice were sacrificed 72 hr post administration followed by spleen and liver isolation and analyzed by IVIS for tdTomato expression.

[11] = mRNA LNPs: ionizable lipid, DSPC, Cholesterol, DMG-PEG 30:18:49.5:2.5 mole ratio

Row | Structure (SMILES) | bio-distribution of LNPs (luciferase expression by IVIS) [1] | PDI (polydispersity index) [4, 11] | Z-ave (hydrodynamic diameter) [4, 11] [nm·days] | Zeta (zeta potential) [4, 11] [mV] | also measured
1 | CCCCC/C=C\C/C=C\CCCCCCCCN(CCO)CCCCCCCCCCOC(=O)CCCCCCCCCN(CCO)CCCCCCCC/C=C\C/C=C\CCCCC [DSL1-1] | distributed to both liver and spleen | 0.23 | 187.3 | −6.37 | uptake by CD11c positive splenic dendritic cells (tdTomato expression) [2]: ~3%; peritoneal macrophages expressing tdTomato [3]: ~60%
2 | CCCCC/C=C\C/C=C\CCCCCCCCN(CCO)CCCCCCCCCCOC(=O)CCCCCCCCCN(CCO)CCCCCCCCCCCC [DSL1-2] | – | 0.17 | 197.2 | −7.52 | uptake by CD11c positive splenic dendritic cells (tdTomato expression) [2]: ~12%; peritoneal macrophages expressing tdTomato [3]: about 90%
3 | CCCCC/C=C\C/C=C\CCCCCCCCN(CCO)CCCCCCCCCCCOC(=O)CCCCCCCCCN(O)CCCCCCCCCCCC [DSL1-3] | preferentially taken up by spleen | 0.17 | 164.8 | −3.90 | LNP distribution and expression, 1.5 mol % vs 2.5 mol % PEG ([1]; mLUC-LNPs IV, two formulations compared): no significant different observed; toxicity (levels of liver enzymes Alk Phos, SGOT, SGPT) [5]: not toxic; uptake by CD11c positive splenic dendritic cells (tdTomato expression) [2]: ~18%; peritoneal macrophages expressing tdTomato [3]: ~20%
4 | CCCCCCCCCCCCN(CCO)CCCCCCCCCCOC(=O)CCCCCCCCCN(CCO)CCCCCCCCCCCC [DSL1-4] | preferentially taken up by spleen | 0.13 | 188.7 | −1.43 | luciferase activity of LNPs with DOPE as co-lipid compared to DSPC containing LNPs ([1]; IVIS): loses its luciferase activity; PDI ([4]; LNPs with DOPE as co-lipid): 0.1; Z-ave (hydrodynamic diameter) ([4]; LNPs with DOPE as co-lipid): 92.3 nm·days; PDI ([4]; LNPs with DSPC as co-lipid): 0.15; Z-ave (hydrodynamic diameter) ([4]; LNPs with DSPC as co-lipid): 190.9 nm·days
5 | CCCCCCCCCCCCN(CCO)CCCCCCCCCC(=O)OCCOC(=O)CCCCCCCCCN(CCO)CCCCCCCCCCCC [DSL1-5] | preferentially taken up by spleen | – | – | – | bio-distribution on increasing ionizable lipid mole ratio (40% vs 30%) [1]: altering the bio-distribution from the spleen to the liver
6 | CCCCC/C=C\C/C=C\CCCCCCCCN(CCO)CCCCCCCCCC(=O)ON(CCCCCCCCCCCC)CCCCCCCCCCCC [DSL2-1] | mostly taken-up by the liver | 0.24 | 49.2 | −6.97 | –
7 | CCCCCCCCCCCCN(CCO)CCCCCCCCCC(=O)ON(CCCCCCCCCCCC)CCCCCCCCCCCC [DSL2-2] | mostly taken-up by the liver | 0.23 | 50.8 | −5.31 | luciferase activity of LNPs with DOPE as co-lipid compared to DSPC containing LNPs ([1]; IVIS): enhanced luciferase activity observed in the liver; Z-ave (hydrodynamic diameter) ([4]; LNPs with DOPE as co-lipid): 72.5 nm·days and 88.5 nm·days; Z-ave (hydrodynamic diameter) ([4]; LNPs with DSPC as co-lipid): 50.8 nm·days and 80.3 nm·days
8 | CCCCCCN(CCCCCC)OC(=O)CCCCCCCCCN(CCO)CCCCCCCCCC(=O)ON(CCCCCC)CCCCCC [DSL2-49] | – | 0.07 | 63.9 | −5.65 | –
9 | CCCCCCN(CCCCCC)CCOC(=O)CCCCCCCCCN(CCO)CCCCCCCCCC(=O)OCCN(CCCCCC)CCCCCC [DSL2-50] | – | 0.04 | 80.3 | −2.68 | bio-distribution on increasing ionizable lipid mole ratio (40% vs 30%) [1]: no significant changes in bio-distribution; luciferase activity of LNPs with DOPE as co-lipid compared to DSPC containing LNPs ([1]; IVIS): enhanced luciferase activity observed in the liver; LNP bio-distribution, intramuscular (IM) administration ([1]; mRNA-LNPs, IVIS): also reaching the liver apart from the injection site of the muscle; LNP bio-distribution, intravenous (IV) administration ([1]; mRNA-LNPs, IVIS): distributing to the liver; toxicity (levels of liver enzymes Alk Phos, SGOT, SGPT) [5]: not toxic; post boost antibody response against SARS-CoV-2 [6]: robust antibody response; luciferase activity in the liver after storage [7]: retain its luciferase activity in the liver; time over which LNPs are stable ([8]; mCherry LNPs stored at 2-8° C.): ≥ 3 months; size of the LNPs compared to freshly prepared LNPs ([8]; mCherry LNPs, after 3 months at 2-8° C.): slightly increased; time over which LNPs are stable ([8]; mLuc LNPs stored at 2-8° C.): ≥ 7 months; size and distribution of the LNPs compared to freshly prepared LNPs ([8]; mLuc LNPs, 210 days (7 months) at 2-8° C.): did not change; amount of Luciferase and mCherry expression [9]: high
10 | CCCCC/C=C\C/C=C\CCCCCCCCN(CCO)CCCCCCCCCCOC(=O)CCCCCCCCCN(CCO)CCCCCCCCCC(=O)OCCCCCCCCCCN(CCO)CCCCCCCC/C=C\C/C=C\CCCCC [DSL3c-1] | distributed to both liver and spleen | 0.45 | 261.9 | −2.68 | –
11 | CCCCCCCCCCCCN(CCCCCCCCCCCC)CC(=O)ON(CCCCCCCCCCCC)CCCCCCCCCCCC [DSL4-2] | no effect | 0.64 | 72.4 | −5.00 | –
12 | CCCCC/C=C\C/C=C\CCCCCCCCC(CCCCCCCC/C=C\C/C=C\CCCCC)OC(=O)CCCN(C)C [Dlin-MC3-DMA] | – | – | – | – | organ of accumulation (tdTomato expression, IVIS) [10]: accumulated in the liver

From patent publication US20240166593A1, “LIPIDS SUITABLE FOR NUCLEIC ACID DELIVERY” (RAMOT AT TEL-AVIV UNIVERSITY LTD., priority 2021, published 2024)
